The structures appear in SMILES notation.

The target in this assay is Sodium-dependent serotonin transporter (Homo sapiens, UniProt P31645). The experiment in a line: In vitro displacement of [3H]paroxetine from human serotonin transporter expressed in HEK293 cells. The format is cell-based. A general note: In a radioligand displacement assay an active substance lowers the binding of a labelled ligand.
Sodium-dependent serotonin transporter, sequence (P31645 whole entry): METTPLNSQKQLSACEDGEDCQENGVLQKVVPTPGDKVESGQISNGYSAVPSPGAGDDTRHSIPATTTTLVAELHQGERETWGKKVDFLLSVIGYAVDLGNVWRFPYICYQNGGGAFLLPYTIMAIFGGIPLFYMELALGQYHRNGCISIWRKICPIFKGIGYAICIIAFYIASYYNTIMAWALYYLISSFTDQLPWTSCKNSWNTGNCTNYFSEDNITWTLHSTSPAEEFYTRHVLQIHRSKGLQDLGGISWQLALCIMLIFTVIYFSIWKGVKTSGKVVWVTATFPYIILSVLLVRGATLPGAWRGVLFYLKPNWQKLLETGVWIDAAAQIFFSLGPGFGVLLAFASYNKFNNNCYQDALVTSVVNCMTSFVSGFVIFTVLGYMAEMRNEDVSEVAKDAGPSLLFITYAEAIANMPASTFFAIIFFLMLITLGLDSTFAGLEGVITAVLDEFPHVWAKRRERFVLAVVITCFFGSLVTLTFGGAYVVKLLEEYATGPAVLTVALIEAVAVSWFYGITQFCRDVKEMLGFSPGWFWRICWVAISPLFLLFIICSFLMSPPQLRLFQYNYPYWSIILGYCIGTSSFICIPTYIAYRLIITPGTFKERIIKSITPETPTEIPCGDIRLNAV

The molecule `Cc1ccc(Sc2ccccc2CN(C)C)c(N)c1` returned a Ki of 1.19 nM.

As usually defined, the Ki is a measure of affinity in units of concentration, obtained from inhibition or displacement.

The values above are taken from ChEMBL document CHEMBL1145212, “Fluorinated diaryl sulfides as serotonin transporter ligands: synthesis, structure-activity relationship study, and in vivo evaluation of fluorine-18-labeled compounds as PET imaging agents” (J Med Chem, 2005).
